Where “and” joins values, the source holds several entries; their conditions need not be identical. Equal entries are not always repeated. Toxic doses and inconclusive results are not listed.
Test system: BDF1 mice, P388 leukemia ip, median survival T/C
Assay: NCI In Vivo Anticancer Drug Screen. Data for tumor model P388 Leukemia (intraperitoneal) in B6D2F1 (BDF1) mice
Conditions: endpoint: median survival time, higher = longer survival
In short: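 Compound-treated tumour-bearing mice were compared with vehicle-treated controls. Survival was recorded, and the value is the treated-group measurement divided by the control-group measurement (T/C).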

[1] = dose: 50.0 mg/kg/injection, schedule: Q01DX009 (ip), vehicle: saline with Tween-80
[2] = dose: 100.0 mg/kg/injection, schedule: Q01DX009 (ip), vehicle: saline with Tween-80
[3] = dose: 50.0 mg/kg/injection, schedule: Q04DX003 (ip), vehicle: saline with Tween-80
[4] = dose: 100.0 mg/kg/injection, schedule: Q04DX003 (ip), vehicle: saline with Tween-80
[5] = dose: 200.0 mg/kg/injection, schedule: Q04DX003 (ip), vehicle: saline with Tween-80
[6] = dose: 25.0 mg/kg/injection, schedule: Q04DX003 (ip), vehicle: Klucel (hydroxypropylcellulose) (HPC)
[7] = dose: 100.0 mg/kg/injection, schedule: Q04DX003 (ip), vehicle: Klucel (hydroxypropylcellulose) (HPC)
[8] = dose: 100.0 mg/kg/injection, schedule: Q01DX001 (ip), vehicle: saline with Tween-80
[9] = dose: 200.0 mg/kg/injection, schedule: Q01DX001 (ip), vehicle: saline with Tween-80
[10] = dose: 400.0 mg/kg/injection, schedule: Q01DX001 (ip), vehicle: saline with Tween-80
[11] = dose: 150.0 mg/kg/injection, schedule: Q01DX009 (ip), vehicle: saline with Tween-80

Nc1ncn(C2CC(O)C(CO)O2)c(=O)n1 (stereo unspecified)
T/C (dose: 0.03 mg/kg/injection, schedule: Q01DX009 (ip), vehicle: saline): 119 % of control
T/C (dose: 0.05 mg/kg/injection, schedule: Q01DX009 (ip), vehicle: saline): 121 % of control
T/C (dose: 0.1 mg/kg/injection, schedule: Q01DX009 (ip), vehicle: Klucel (hydroxypropylcellulose) (HPC)): 190 % of control
T/C (dose: 0.2 mg/kg/injection, schedule: Q01DX009 (ip), vehicle: Klucel (hydroxypropylcellulose) (HPC)): 160 % of control and 206 % of control
T/C (dose: 0.4 mg/kg/injection, schedule: Q01DX009 (ip), vehicle: Klucel (hydroxypropylcellulose) (HPC)): 175 % of control and 190 % of control
T/C (dose: 0.4 mg/kg/injection, schedule: Q01DX009 (ip), vehicle: saline): 150 % of control
T/C (dose: 0.8 mg/kg/injection, schedule: Q01DX009 (ip), vehicle: Klucel (hydroxypropylcellulose) (HPC)): 109 % of control and 212 % of control
T/C (dose: 0.8 mg/kg/injection, schedule: Q01DX009 (ip), vehicle: saline): 188 % of control
T/C (dose: 1.56 mg/kg/injection, schedule: Q01DX009 (ip), vehicle: saline): 106 % of control
T/C (dose: 3.12 mg/kg/injection, schedule: Q01DX009 (ip), vehicle: saline): 94 % of control
T/C (dose: 3.12 mg/kg/injection, schedule: Q04DX003 (ip), vehicle: saline): 235 % of control
T/C (dose: 6.25 mg/kg/injection, schedule: Q01DX009 (ip), vehicle: saline): 90 % of control
T/C (dose: 6.25 mg/kg/injection, schedule: Q04DX003 (ip), vehicle: saline): 265 % of control
T/C (dose: 12.5 mg/kg/injection, schedule: Q04DX003 (ip), vehicle: saline): 160 % of control

CC(=O)N(O)c1ccc(Cl)cc1
T/C (dose: 25.0 mg/kg/injection, schedule: Q04DX002 (ip), vehicle: saline with Tween-80): 91 % of control and 100 % of control
T/C (dose: 50.0 mg/kg/injection, schedule: Q04DX002 (ip), vehicle: saline with Tween-80): 104 % of control and 110 % of control

Cc1c(C)c2ccc(N)cc2[nH]c1=O
T/C (dose: 2.0 mg/kg/injection, schedule: Q01DX009 (ip), vehicle: saline): 118 % of control
T/C (dose: 4.0 mg/kg/injection, schedule: Q01DX009 (ip), vehicle: saline): 105 % of control
T/C (dose: 8.0 mg/kg/injection, schedule: Q01DX009 (ip), vehicle: saline): 99 % of control
T/C (dose: 16.0 mg/kg/injection, schedule: Q01DX009 (ip), vehicle: saline): 118 % of control
T/C (dose: 25.0 mg/kg/injection, schedule: Q04DX003 (ip), vehicle: saline): 98 % of control
T/C (dose: 50.0 mg/kg/injection, schedule: Q04DX003 (ip), vehicle: saline): 106 % of control
T/C (dose: 100.0 mg/kg/injection, schedule: Q04DX003 (ip), vehicle: saline): 106 % of control
T/C (dose: 200.0 mg/kg/injection, schedule: Q04DX003 (ip), vehicle: saline): 104 % of control
T/C (dose: 400.0 mg/kg/injection, schedule: Q04DX003 (ip), vehicle: saline): 107 % of control

COC(=O)/C(N=Nc1cccc(C)c1)=C(\C)O
T/C [1]: 97 % of control
T/C [2]: 103 % of control

O=S(=O)(Cc1ccccc1)C(Cl)(Cl)c1ccccc1
T/C [3]: 100 % of control
T/C [4]: 104 % of control
T/C [5]: 109 % of control

COc1ccc(C(C#N)N2CCCCC2)cc1 (stereo unspecified)
T/C (dose: 12.5 mg/kg/injection, schedule: Q01DX009 (ip), vehicle: Klucel (hydroxypropylcellulose) (HPC)): 115 % of control
T/C (dose: 25.0 mg/kg/injection, schedule: Q01DX009 (ip), vehicle: Klucel (hydroxypropylcellulose) (HPC)): 100 % of control
T/C [6]: 113 % of control
T/C (dose: 50.0 mg/kg/injection, schedule: Q01DX009 (ip), vehicle: Klucel (hydroxypropylcellulose) (HPC)): 100 % of control
T/C (dose: 50.0 mg/kg/injection, schedule: Q04DX003 (ip), vehicle: Klucel (hydroxypropylcellulose) (HPC)): 100 % of control
T/C [7]: 100 % of control and 104 % of control

NC(CC(=O)CCl)C(=O)O (stereo unspecified)
T/C (dose: 8.25 mg/kg/injection, schedule: Q04DX003 (ip), vehicle: saline with Tween-80): 154 % of control
T/C (dose: 12.5 mg/kg/injection, schedule: Q04DX003 (ip), vehicle: Klucel (hydroxypropylcellulose) (HPC)): 165 % of control
T/C (dose: 12.5 mg/kg/injection, schedule: Q04DX003 (ip), vehicle: saline with Tween-80): 172 % of control
T/C (dose: 18.75 mg/kg/injection, schedule: Q04DX003 (ip), vehicle: saline with Tween-80): 109 % of control
T/C [6]: 165 % of control

CC(Br)C1(c2cccc([N+](=O)[O-])c2)OCCO1 (stereo unspecified)
T/C (dose: 25.0 mg/kg/injection, schedule: Q01DX001 (ip), vehicle: Klucel (hydroxypropylcellulose) (HPC)): 100 % of control
T/C (dose: 50.0 mg/kg/injection, schedule: Q01DX001 (ip), vehicle: Klucel (hydroxypropylcellulose) (HPC)): 104 % of control
T/C (dose: 100.0 mg/kg/injection, schedule: Q01DX001 (ip), vehicle: Klucel (hydroxypropylcellulose) (HPC)): 90 % of control and 100 % of control

CC1C(=O)COCC1=O
T/C [8]: 102 % of control
T/C [9]: 101 % of control
T/C [10]: 98 % of control

CC[C@H]1OC(=O)[C@H](C)[C@@H](OC2CC(C)(OC)C(OC(=O)CCCC(=O)O)C(C)O2)[C@H](C)[C@@H](OC2OC(C)CC(N(C)C)C2O)[C@](C)(O)C[C@@H](C)C(=O)[C@H](C)[C@@H](O)[C@]1(C)O (stereo partly specified)
T/C (dose: 7.5 mg/kg/injection, schedule: Q01DX009 (ip), vehicle: Klucel (hydroxypropylcellulose) (HPC)): 111 % of control
T/C (dose: 15.0 mg/kg/injection, schedule: Q01DX009 (ip), vehicle: Klucel (hydroxypropylcellulose) (HPC)): 101 % of control
T/C (dose: 30.0 mg/kg/injection, schedule: Q01DX009 (ip), vehicle: Klucel (hydroxypropylcellulose) (HPC)): 97 % of control
T/C (dose: 60.0 mg/kg/injection, schedule: Q01DX009 (ip), vehicle: Klucel (hydroxypropylcellulose) (HPC)): 111 % of control

CC1=CCC2(C)C(=O)C1CC1=C2CC(C)(C)CC1=O (stereo unspecified)
T/C (dose: 100.0 mg/kg/injection, schedule: Q01DX009 (ip), vehicle: saline): 100 % of control
T/C (dose: 400.0 mg/kg/injection, schedule: Q01DX009 (ip), vehicle: saline): 100 % of control

Cc1ccc(C)c(C(=O)C2CC2)c1
T/C [3]: 100 % of control
T/C [2]: 100 % of control
T/C [4]: 120 % of control
T/C [11]: 103 % of control
T/C (dose: 200.0 mg/kg/injection, schedule: Q01DX009 (ip), vehicle: saline with Tween-80): 110 % of control
T/C [5]: 100 % of control

COc1ccc2c(c1O)-c1c(OC)c(OC)cc3c1C(C2)N(C)CC3 (stereo unspecified)
T/C (dose: 5.0 mg/kg/injection, schedule: Q01DX010 (ip), vehicle: saline): 100 % of control
T/C (dose: 10.0 mg/kg/injection, schedule: Q01DX010 (ip), vehicle: saline): 95 % of control
T/C (dose: 20.0 mg/kg/injection, schedule: Q01DX010 (ip), vehicle: saline): 100 % of control
T/C (dose: 40.0 mg/kg/injection, schedule: Q01DX010 (ip), vehicle: saline): 100 % of control

CCCCC(=O)c1ccc(Cl)cc1
T/C (dose: 100.0 mg/kg/injection, schedule: Q01DX009 (ip), vehicle: Klucel (hydroxypropylcellulose) (HPC)): 105 % of control
T/C [7]: 104 % of control
T/C (dose: 200.0 mg/kg/injection, schedule: Q01DX009 (ip), vehicle: Klucel (hydroxypropylcellulose) (HPC)): 110 % of control
T/C (dose: 200.0 mg/kg/injection, schedule: Q04DX003 (ip), vehicle: Klucel (hydroxypropylcellulose) (HPC)): 100 % of control
T/C (dose: 400.0 mg/kg/injection, schedule: Q01DX009 (ip), vehicle: Klucel (hydroxypropylcellulose) (HPC)): 115 % of control
T/C (dose: 400.0 mg/kg/injection, schedule: Q04DX003 (ip), vehicle: Klucel (hydroxypropylcellulose) (HPC)): 100 % of control

O=C(NC(=O)c1c(F)cccc1F)Nc1ccc([N+](=O)[O-])cn1
T/C (dose: 25.0 mg/kg/injection, schedule: Q01DX009 (ip), vehicle: saline with Tween-80): 96 % of control
T/C [1]: 90 % of control
T/C [2]: 90 % of control

COC(=O)c1cc(Cl)ccc1OCC(=O)NCc1ccc(Cl)cc1
T/C [8]: 100 % of control
T/C [9]: 95 % of control
T/C [10]: 90 % of control

O=[N+]([O-])c1ccc(NCc2ccccc2)c2c1no[n+]2[O-]
T/C (dose: 35.0 mg/kg/injection, schedule: Q01DX009 (ip), vehicle: saline with Tween-80): 92 % of control
T/C (dose: 70.0 mg/kg/injection, schedule: Q01DX009 (ip), vehicle: saline with Tween-80): 91 % of control
T/C (dose: 140.0 mg/kg/injection, schedule: Q01DX009 (ip), vehicle: saline with Tween-80): 92 % of control

CCC(C)NC(=S)N/N=C\C=N/NC(=S)NC(C)CC (stereo unspecified)
T/C (dose: 75.0 mg/kg/injection, schedule: Q01DX009 (ip), vehicle: saline with Tween-80): 99 % of control
T/C [11]: 92 % of control
T/C (dose: 300.0 mg/kg/injection, schedule: Q01DX009 (ip), vehicle: saline with Tween-80): 103 % of control
